From patent US12661396B2, “Selective targeting of the TREML1/MD2 interaction by small peptide or protein and its use for vaccine adjuvants” (Ascendo Biotechnology, Inc., priority 2020, dated 2026)

How the values were obtained:
mMD2 = target: T1, mMD2 (Mus musculus, UniProt Q9JHF9); assay: Solid phase binding assay, mMD2 to immobilized mTREML1 stalk; conditions: stalk coated 5 ug/ml; FIG. 3B
T1 sequence (Q9JHF9 19-160): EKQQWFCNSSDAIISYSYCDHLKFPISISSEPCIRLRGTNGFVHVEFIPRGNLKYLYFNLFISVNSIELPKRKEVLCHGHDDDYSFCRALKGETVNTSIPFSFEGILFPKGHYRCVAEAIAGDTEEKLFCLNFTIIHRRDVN
Experimental: For TREML1 or mTREML1 stalk binding to human or mouse MD2 protein, TREML1 stalk or mTREML1 stalk (5 ug/ml in PBS) was coated separately on a 96-well plate. Recombinant hTLR4, hMD2, hCD14, or mMD2 was each serially diluted and added to the plates. Anti-His tag antibody-HRP was used as a detection antibody to detect the protein binding.

BMDCs = assay: Mouse bone marrow derived dendritic cell maturation (flow cytometry); type: cell-based; conditions: FIG. 8
Experimental: Femurs and tibiae were harvested from female C57BL/6 mice and extra muscle tissues were removed. Bones were disinfected in 70% ethanol, then rinsed with RPMI-1640 medium, and both ends were cut to flush out the bone marrow with RPMI-1640 medium using 26 G needle syringes. To disperse cell clumps, bone marrow suspension was pipetted in-and-out several times and washed twice with RPMI-1640 medium by centrifugation. […] At day 0, after cell counting, the leukocytes were seeded at a concentration of 2×10^6 cells/10 ml R10 medium containing 200 U/ml rmGM-CSF in sterile […] Petri dish and incubated at 37° C. with 5% CO2. At day 3, another 10 ml of R10 medium containing 200 U/ml rmGM-CSF was added. At days 6, one half of the supernatant was taken out and centrifuged to collect cell pellet, which was resuspend in original plate with 10 ml of R10 medium containing 200 U/ml GM-CSF. At day 8, non-adherent cells were collected by gentle pipetting and centrifuged at 300 g for 5 min. To obtain purer dendritic cells, the population of macrophages (F4/80^high) was removed with Anti-F4/80 MicroBeads UltraPure (130-110-443, Miltenyi Biotec, Bergisch Gladbach, Germany) following the manufacturer's instructions. Briefly, cell pellet was resuspended and mixed well in MACS buffer with Anti-F4/80 MicroBeads UltraPure. This mixture was incubated for 15 min in the dark in 4° C. After washing cells with MACS buffer, cells were resuspended in MACS buffer, filtered with 30 μm nylon mesh, and added to the MACS buffer rinsed column to separate F4/80^+ cells. Unlabeled cells were collected and washed with R10 medium. To freeze the cells, cell pellet was counted and resuspended at a concentration 1×10^7 cell in 2 ml CELLBANKER2 (#11891, ZENOAQ) per cryopreservation vial and stored at −80 degree Celsius.
BMDCs were thawed for the DC maturation experiments. These cells were seeded at 1×10^6 cells/2 ml in R10 medium containing 200 U/ml rmGM-CSF in wells of a 6-well tissue culture dish and cultured to recover the cell viability at 37° C. with 5% CO2. After 6 hr, BMDCs were treated with various fragments of mTREML1 protein and cultured in 37° C. with 5% CO2. On the next day, resuspended cells were collected and analyzed by flow cytometry.
Cells were centrifuged at 1800 rpm for 3 min in PBS containing 1% FBS and 0.1% sodium azide (PBSBA), and then divided at a concentration of 1×10^5 cells/100 ul PBSBA in flow tube. Before staining the surface marker of DC, cells were treated with mouse Fc blocker to avoid antibody non-specific binding at room temperature for 30 min. […] After PBSBA washing, samples were analyzed using the CytoFlex flow cytometer with the CytExpert software.

CT26 colon cancer cells = assay: CT26 colon carcinoma model, tumor vaccine with adjuvant; type: in vivo, BALB/c mice; conditions: combined with tumor antigen 5E-GP70-15/aluminum mixture, s.c. on days 6 and 13; FIG. 9B
Experimental: To test TREML1 ECD or its stalk as a vaccine adjuvant or immune booster, we use a CT26 colon carcinoma animal model. […] Briefly, CT26 colon cancer cells (3×10^5 cells) were injected subcutaneously into BALB/c mice on day 0. When the tumor grows to 30-100 mm^3 on day 6, tumor vaccines (tumor antigen 5E-GP70-15/aluminum mixture with or without mouse TREML1 stalk; 100 μL/mouse each time) were injected subcutaneously. The vaccinations were repeated on days 13. Tumor volumes were measured every 3-4 days. […] A DNA vaccine containing the gp70 gene has been used to induce protective immunity against CT26 cells. (J. Takeda et al., “Anti-tumor immunity against CT26 colon tumor in mice immunized with plasmid DNA encoding beta-galactosidase fused to an envelope protein of endogenous retrovirus,” Cell Immunol., (2000), 204(1): 11-18).
For the establishment of syngeneic murine colon cancer models, BALB/c mice were subcutaneously injected in the back with 3×10^5 CT26 cells per mouse. When the volume of the inoculated tumor reached 30-100 mm^3, mice were randomly divided into cohorts for different treatments. […] During each animal study, tumor dimensions were monitored with caliper measurements, and the tumor volumes were calculated using the equation: […], wherein length is the longest diameter of the tumor and the width is the shortest diameter. […]

Substance: mTREML1 stalk: mouse TREML1 stalk polypeptide, SEQ ID NO:4, EGEEAEDEKETYRIGTGSLLEDPSLDPSASAGPHEFRRRENSIP, chemically synthesized (listed as Mus musculus)
- mouse MD2 binding to immobilized mTREML1 stalk (mMD2): can bind to the immobilized TREML1 stalk and mTREML1 stalk
- dendritic cell maturation effect compared with TNF-α (BMDCs): significantly stronger than those of TNF-α
- dendritic cell maturation (DC maturation markers CD40, CD86, CD80, MHC II) (BMDCs; analyzed the next day): can trigger dendritic cell maturation
- tumor volume, vaccine with mTREML1 stalk as adjuvant (CT26 colon cancer cells): dramatic reduction in the tumor volumes
